In publication PMC11684530 (ACS Omega, 2024):
pIC50: −log10 of the molar value.

target: T1, COX-2 (cyclooxygenase-2) (Homo sapiens, UniProt P35354); experiment: fluorometric COX-2 inhibitor screening kit; assay type: biochemical
T1 sequence (P35354 18-604): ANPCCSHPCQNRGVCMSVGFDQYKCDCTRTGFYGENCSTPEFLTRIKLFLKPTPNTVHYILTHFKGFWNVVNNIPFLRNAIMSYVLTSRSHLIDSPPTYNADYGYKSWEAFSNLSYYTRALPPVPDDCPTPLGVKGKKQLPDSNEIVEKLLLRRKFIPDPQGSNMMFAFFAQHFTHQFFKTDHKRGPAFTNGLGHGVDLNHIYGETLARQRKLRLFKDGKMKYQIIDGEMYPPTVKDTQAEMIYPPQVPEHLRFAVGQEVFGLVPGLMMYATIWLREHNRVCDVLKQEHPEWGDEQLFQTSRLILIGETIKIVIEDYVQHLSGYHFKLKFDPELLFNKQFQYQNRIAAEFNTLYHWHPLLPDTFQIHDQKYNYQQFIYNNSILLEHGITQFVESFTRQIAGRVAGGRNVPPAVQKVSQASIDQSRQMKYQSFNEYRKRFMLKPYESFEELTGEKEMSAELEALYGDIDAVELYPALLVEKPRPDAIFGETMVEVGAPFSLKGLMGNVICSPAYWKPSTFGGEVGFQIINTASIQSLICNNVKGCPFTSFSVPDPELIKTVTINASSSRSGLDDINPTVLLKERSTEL

pIC50	Compound
5.02	O=c1cc(-c2ccccc2)oc2cc(O)c(CCO)c(O)c12 [1a, 5,7-Dihydroxy-6-(2-hydroxyethyl)-2-phenyl-4H-chromen-4-one]
4.73	O=c1cc(-c2ccccc2)oc2cc(O)cc(O)c12 [chrysin]
5.17	CC(C)=CCc1c(O)cc(O)c2c(=O)cc(-c3ccccc3)oc12 [compound 8, 5,7-Dihydroxy-8-(3-methylbut-2-en-1-yl)-2-phenyl-4H-chromen-4-one]
